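All cell lines were grown in 96-well plates and treated with compound for 48 hours. Here, GI50 denotes the concentration required for 50% inhibition of growth.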 Activity calls are given as the source filed them. No stated cut-off is given here; in the data, active = GI50 up to about 1.1 µM and inactive = higher.
How the values were obtained:
Test in all cases: DTP human tumour cell line panel, 48 h
TK-10 = system: TK-10
KM12 = system: KM12
UACC-62 = system: UACC-62
NCI-H226 = system: NCI-H226
A498 = system: A498
OVCAR-4 = system: OVCAR-4
SN12C = system: SN12C
786-0 = system: 786-0
SNB-75 = system: SNB-75
HCT-116 = system: HCT-116
HCT-15 = system: HCT-15
MOLT-4 = system: MOLT-4
MDA-MB-435 = system: MDA-MB-435
MDA-N = system: MDA-N
HL-60 = system: HL-60
CAKI-1 = system: CAKI-1
SK-MEL-28 = system: SK-MEL-28
EKVX = system: EKVX
HOP-62 = system: HOP-62
T47D = system: T47D

O=C(O)COc1cc(-c2ccccc2)nc2cc(F)ccc12
GI50 (TK-10): 0.375 µM (active) | GI50 (KM12): > 100 µM (inactive) | GI50 (UACC-62): > 100 µM (inactive) | GI50 (NCI-H226): > 100 µM (inactive) | GI50 (A498): > 100 µM (inactive) | GI50 (OVCAR-4): > 100 µM (inactive) | GI50 (SN12C): > 100 µM (inactive) | GI50 (786-0): > 100 µM (inactive) | GI50 (SNB-75): > 100 µM (inactive) | GI50 (HCT-116): > 100 µM (inactive) | GI50 (HCT-15): > 100 µM | GI50 (MOLT-4): > 100 µM (inactive) | GI50 (MDA-MB-435): > 100 µM (inactive) | GI50 (MDA-N): > 100 µM (inactive) | GI50 (HL-60): > 100 µM (inactive) | GI50 (CAKI-1): > 100 µM (inactive) | GI50 (SK-MEL-28): > 100 µM (inactive) | GI50 (EKVX): > 100 µM (inactive) | GI50 (HOP-62): > 100 µM (inactive) | GI50 (T47D): > 100 µM (inactive)

COc1ccc2c(c1)-c1c(c3cc(OC)ccc3n1CCCN(C)C)CC2
GI50 (TK-10): 16.5 µM (inactive) | GI50 (KM12): 7.93 µM (inactive) | GI50 (UACC-62): 6.98 µM (inactive) | GI50 (NCI-H226): 1.84 µM (inactive) | GI50 (A498): 13.4 µM (inactive) | GI50 (OVCAR-4): 11 µM (inactive) | GI50 (SN12C): 12 µM (inactive) | GI50 (786-0): 9.04 µM (inactive) | GI50 (SNB-75): 2.99 µM (inactive) | GI50 (HCT-116): 5.2 µM (inactive) | GI50 (HCT-15): 11.4 µM | GI50 (MOLT-4): 5.93 µM (inactive) | GI50 (MDA-MB-435): 5.55 µM (inactive) | GI50 (MDA-N): 4.79 µM (inactive) | GI50 (HL-60): 15.3 µM (inactive) | GI50 (CAKI-1): 12.4 µM (inactive) | GI50 (SK-MEL-28): 5.78 µM (inactive) | GI50 (EKVX): 13.2 µM (inactive) | GI50 (HOP-62): 14.3 µM (inactive) | GI50 (T47D): 5.36 µM (inactive)

O=CNc1ccc2c(c1)C(=O)c1ccccc1-2
GI50 (TK-10): > 100 µM (inactive) | GI50 (KM12): 68.2 µM (inactive) | GI50 (UACC-62): 49.9 µM (inactive) | GI50 (NCI-H226): > 100 µM (inactive) | GI50 (A498): 90.2 µM (inactive) | GI50 (OVCAR-4): > 100 µM (inactive) | GI50 (SN12C): 30.3 µM (inactive) | GI50 (786-0): 42.9 µM (inactive) | GI50 (SNB-75): 86.3 µM (inactive) | GI50 (HCT-116): 37.8 µM (inactive) | GI50 (HCT-15): 59.7 µM | GI50 (MOLT-4): 44.7 µM (inactive) | GI50 (MDA-MB-435): > 100 µM (inactive) | GI50 (MDA-N): > 100 µM (inactive) | GI50 (HL-60): 49.1 µM (inactive) | GI50 (CAKI-1): > 100 µM (inactive) | GI50 (SK-MEL-28): > 100 µM (inactive) | GI50 (EKVX): 4.69 µM (inactive) | GI50 (HOP-62): 90.2 µM (inactive) | GI50 (T47D): 76.9 µM (inactive)

CC(=O)OC1CC(O)CC2=CCC3C4CCC(C(C)(O)C(O)CC5COC(=O)C5C)C4(C)CCC3C21C (stereo not given)
GI50 (TK-10): > 25 µM (inactive) | GI50 (KM12): > 25 µM (inactive) | GI50 (UACC-62): 21.4 µM (inactive) | GI50 (NCI-H226): 12.1 µM (inactive) | GI50 (A498): > 25 µM (inactive) | GI50 (OVCAR-4): > 25 µM (inactive) | GI50 (SN12C): > 25 µM (inactive) | GI50 (786-0): > 25 µM (inactive) | GI50 (SNB-75): 7.08 µM (inactive) | GI50 (HCT-116): 15.2 µM (inactive) | GI50 (HCT-15): > 25 µM | GI50 (MOLT-4): > 25 µM (inactive) | GI50 (MDA-MB-435): > 25 µM (inactive) | GI50 (MDA-N): > 25 µM (inactive) | GI50 (HL-60): 4.39 µM (inactive) | GI50 (CAKI-1): 8.43 µM (inactive) | GI50 (SK-MEL-28): 24.5 µM (inactive) | GI50 (EKVX): 8.89 µM (inactive) | GI50 (HOP-62): > 25 µM (inactive) | GI50 (T47D): > 25 µM (inactive)

COc1ncc(C#CC(=O)c2ccccc2OC)c(OC)n1
GI50 (TK-10): 0.891 µM (active) | GI50 (KM12): 5.7 µM (inactive) | GI50 (UACC-62): 2.6 µM (inactive) | GI50 (NCI-H226): 1.42 µM (inactive) | GI50 (A498): 18.4 µM (inactive) | GI50 (OVCAR-4): 5.78 µM (inactive) | GI50 (SN12C): 0.684 µM (active) | GI50 (786-0): 1.86 µM (inactive) | GI50 (SNB-75): 4.03 µM (inactive) | GI50 (HCT-116): 4.98 µM (inactive) | GI50 (HCT-15): 0.621 µM | GI50 (MOLT-4): 0.386 µM (active) | GI50 (MDA-MB-435): 2.78 µM (inactive) | GI50 (MDA-N): 1.64 µM (inactive) | GI50 (HL-60): 0.432 µM (active) | GI50 (CAKI-1): 1.77 µM (inactive) | GI50 (SK-MEL-28): 2.86 µM (inactive) | GI50 (EKVX): 3.25 µM (inactive) | GI50 (HOP-62): 17.7 µM (inactive) | GI50 (T47D): 2.93 µM (inactive)

Reference: ChEMBL document CHEMBL1201862, “PubChem BioAssay data set” (2004)
